Values of other authors, collected in publication PMC9387934, “Randomized single oral dose phase 1 study of safety, tolerability, and pharmacokinetics of Iminosugar UV-4 Hydrochloride (UV-4B) in healthy subjects” (PLoS Neglected Tropical Diseases, 2022).

What was measured:
[1] = 300 mg BID; grade 3 transaminase, CK, and LDH elevations; cited from earlier work
[2] = 212 obese patients treated for 36 months; cited from earlier work
[3] = 1108 patients, average of 6 months; cited from earlier work
[4] = doses of 100 mg TID or less; cited from earlier work
[5] = set-up: method as in Zavesca SmPC; settings: ref Zavesca SmPC; cited from earlier work
[6] = dogs, 105 mg/kg/day given over 4 weeks; cited from earlier work
[7] = set-up: method as in FDA Advisory Briefing Book for Miglustat; settings: humans, doses of up to 1000 mg TID; ref FDA Advisory Briefing Book for Miglustat; cited from earlier work
[8] = healthy male subjects; cited from earlier work

For `CCCC(=O)O[C@H]1CN2CC[C@H](O)[C@@H]2[C@@H](O)[C@@H]1O` [Celgosivir], the “Outcome of safety and tolerability study” value [1] is listed as “prematurely discontinued”.
For `C[C@H]1O[C@H](O[C@H]2[C@H](O)[C@@H](O)[C@@H](O[C@H]3[C@H](O)[C@@H](O)C(O)O[C@@H]3CO)O[C@@H]2CO)[C@H](O)[C@@H](O)[C@@H]1N[C@H]1C=C(CO)[C@@H](O)[C@H](O)[C@H]1O` (some centres unmarked) [acarbose], the “ALT elevations, share of patients” value [2] is listed as 9% and the “Rates of ALT elevations versus placebo” value [3] is listed as “no different”.
For `CCCCN1C[C@H](O)[C@@H](O)[C@H](O)[C@H]1CO` [miglustat, N-butyl-Deoxynojirimycin], the “Association with AST and ALT elevations” value [4] is listed as “does not appear to be associated”, the NOAEL [5] is listed as 20 mg/kg and the Neurologic findings [6] is listed as “tremor and reduction or absence of corneal reflexes”. The “Histamine-like findings as seen in rats” value [7] was “no similar findings” and the AST elevations [8] was “no AST elevations”.
